Test results reported in patent US20020137929A1, “1 - (3-heterocyclylphenyl) isothiourea, -isourea, -guanidine and -amidine herbicidal agents” (Intellectual Property Department, BASF Aktiengesellschaft, priority 1998, published 2002).

Tests used:
[1] = system: SAGPY (Arrowhead (Pygmaea)); test: Preemergence weed control under flooded paddy conditions; assay type: in vivo, Sagittaria pygmaea; settings: rated 3-4 weeks after treatment
How it was run: (§1)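 Greenhouse paddy assay. Acetone/water (50/50 v/v) solutions dosed into flood water, equivalent to about 0.0313 to 0.500 kg/ha active ingredient, over seeds planted 0.5 cm deep in silt loam. Score: 0-9 visual, based on stand, vigor, malformation, size and chlorosis, 3 to 4 weeks after treatment.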

MOOVA (Monochoria) = test: as above; assay type: in vivo, Monochoria vaginalis; settings: rated 3-4 weeks after treatment
How it was run: as §1

ABUTH (Velvetleaf) [2] = test: Preemergence herbicidal evaluation; assay type: in vivo, Abutilon theophrasti; settings: rated 4-5 weeks after treatment
How it was run: (§2)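 Scores (0–9) reflect visual comparison with control plants for stand, vigor, malformation, size and chlorosis. Compound was applied to the soil after sowing, before emergence, as an aqueous acetone spray (about 0.0156–0.500 kg/ha), and cups were kept in a greenhouse for 4–5 weeks.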

[3] = system: GLXMAW (Soybean, Williams); test: Postemergence herbicidal evaluation; assay type: in vivo, Glycine max, (L.) Merr. cv Williams; settings: for Herbicidal rating GLXMAW: postemergence
How it was run: (§3)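 Herbicidal effect was judged by eye on a 0–9 scale covering stand, vigor, deformity, size and chlorosis, compared with controls, four to five weeks after seedlings about two weeks old were sprayed (40 psi, ~0.0156–0.500 kg/ha).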

CASOB (Sicklepod) = test: Preemergence herbicidal evaluation; assay type: in vivo, Cassia obtusifolia; settings: rated 4-5 weeks after treatment
How it was run: as §2

SETVI (Foxtail, Green) [4] = test: Postemergence herbicidal evaluation; assay type: in vivo, Setaria viridis; settings: for Herbicidal rating SETVI: postemergence
How it was run: as §3

ORYSAT (Rice, Tebonnet) = test: Postemergence herbicidal evaluation; assay type: in vivo, Oryza sativa, (L.) Tebonnet; settings: for Herbicidal rating ORYSAT: postemergence
How it was run: as §3

[5] = system: TRZAWR (Wheat, Winter, cv Riband); test: Postemergence herbicidal evaluation; assay type: in vivo, Triticum aestivum; settings: for Herbicidal rating TRZAWR: postemergence
How it was run: as §3

AMBEL (Ragweed, Common) = test: Postemergence herbicidal evaluation; assay type: in vivo, Ambrosia artemisifolia; settings: for Herbicidal rating AMBEL: postemergence
How it was run: as §3

[6] = system: SAGPY (Arrowhead (Pygmaea)); test: Postemergence weed control under flooded paddy conditions; assay type: in vivo, Sagittaria pygmaea; settings: postemergence weeds
How it was run: (§4)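 Containers holding 3–5 cm weeds and rice at 1.5–2.5 leaves are flooded to 1.5–3 cm above soil. Compound in 50/50 v/v aqueous/acetone is then added directly to the water, about 0.0313–0.500 kg/ha. Plants are kept in the greenhouse and rated 0–9 visually at 3–4 weeks.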

ABUTH (Velvetleaf) [7] = test: Postemergence herbicidal evaluation; assay type: in vivo, Abutilon theophrasti; settings: for Herbicidal rating ABUTH: postemergence
How it was run: as §3

CYPIR (Rice Flatsedge) = test: Postemergence weed control under flooded paddy conditions; assay type: in vivo, Cyperus iria; settings: postemergence weeds
How it was run: as §4

SETVI (Foxtail, Green) [8] = test: Preemergence herbicidal evaluation; assay type: in vivo, Setaria viridis; settings: rated 4-5 weeks after treatment
How it was run: as §2

ECHCG (Barnyardgrass) = test: Postemergence herbicidal evaluation; assay type: in vivo, Echinochloa crus-galli; settings: for Herbicidal rating ECHCG: postemergence
How it was run: as §3

[9] = Rate 0.0313 kg/ha, rated 3 to 4 weeks after treatment
[10] = Rate 0.1250 kg/ha, rated 3 to 4 weeks after treatment
[11] = Rate 0.2500 kg/ha, rated 3 to 4 weeks after treatment
[12] = rate 0.0625 kg/ha, 3-4 weeks after treatment
[13] = rate 0.1250 kg/ha, 3-4 weeks after treatment
[14] = rate 0.2500 kg/ha, 3-4 weeks after treatment

CC(C)S(=O)(=O)NC(=O)CC1SC(=Nc2cc(-n3c(=O)cc(C(F)(F)F)n(C)c3=O)c(F)cc2Cl)N(C)C1=O (centres unmarked) [Compound 119, 2-{{2-Chloro-5-[3,6-dihydro-3-methyl-2,6-dioxo-4-(trifluoromethyl)-1(2H)-pyrimidinyl]-4-fluorophenyl}imino}-N-(isopropylsulfonyl)-3-methyl-4-oxo-5-thiazolidineacetamide]
8.0: herbicidal effect rating, MOOVA (MOOVA (Monochoria); 0.0625 kg/ha)
7.5: herbicidal effect rating, MOOVA (MOOVA (Monochoria); 0.0313 kg/ha)
6.0: Herbicidal rating CYPIR (CYPIR (Rice Flatsedge); [10])
4.5: herbicidal effect rating, SAGPY ([1]; 0.2500 kg/ha)
3.0: herbicidal effect rating, SAGPY ([1]; 0.0625 kg/ha) | Preemergence herbicidal rating ABUTH (ABUTH (Velvetleaf) [2]; rate 0.0313 kg/ha) | Preemergence herbicidal rating CASOB (CASOB (Sicklepod); rate 0.2500 kg/ha) | Herbicidal rating SETVI (SETVI (Foxtail, Green) [4]; rate 0.0156 kg/ha) | Herbicidal rating ORYSAT (ORYSAT (Rice, Tebonnet); rate 0.0625 kg/ha)
4.0: Preemergence herbicidal rating ABUTH (ABUTH (Velvetleaf) [2]; rate 0.0625 kg/ha)
1.5: Herbicidal rating ORYSAT (ORYSAT (Rice, Tebonnet); rate 0.0156 kg/ha)
2.5: herbicidal effect rating, SAGPY ([1]; 0.0313 kg/ha) | Herbicidal rating TRZAWR ([5]; rate 0.0156 kg/ha)
7.0: Herbicidal rating GLXMAW ([3]; rate 0.0156 kg/ha) | Preemergence herbicidal rating SETVI (SETVI (Foxtail, Green) [8]; rate 0.1250 kg/ha) | Preemergence herbicidal rating SETVI (SETVI (Foxtail, Green) [8]; rate 0.2500 kg/ha)
3.5: herbicidal effect rating, SAGPY ([1]; 0.1250 kg/ha) | Herbicidal rating TRZAWR ([5]; rate 0.0313 kg/ha) | Herbicidal rating TRZAWR ([5]; rate 0.0625 kg/ha)
0.0: Preemergence herbicidal rating ABUTH (ABUTH (Velvetleaf) [2]; rate 0.0156 kg/ha) | Preemergence herbicidal rating CASOB (CASOB (Sicklepod); rate 0.0156 kg/ha) | Preemergence herbicidal rating CASOB (CASOB (Sicklepod); rate 0.0313 kg/ha) | Preemergence herbicidal rating CASOB (CASOB (Sicklepod); rate 0.0625 kg/ha) | Herbicidal rating SAGPY [6, 9] | Herbicidal rating SAGPY ([6]; Rate 0.0625 kg/ha, rated 3 to 4 weeks after treatment) | Herbicidal rating SAGPY [6, 10] | Herbicidal rating SAGPY [6, 11] | Preemergence herbicidal rating SETVI (SETVI (Foxtail, Green) [8]; rate 0.0156 kg/ha) | Preemergence herbicidal rating SETVI (SETVI (Foxtail, Green) [8]; rate 0.0313 kg/ha) | Herbicidal rating ECHCG (ECHCG (Barnyardgrass); rate 0.0156 kg/ha) | Herbicidal rating ECHCG (ECHCG (Barnyardgrass); rate 0.0313 kg/ha)
2.0: Herbicidal rating ORYSAT (ORYSAT (Rice, Tebonnet); rate 0.0313 kg/ha) | Herbicidal rating CYPIR (CYPIR (Rice Flatsedge); [9]) | Preemergence herbicidal rating SETVI (SETVI (Foxtail, Green) [8]; rate 0.0625 kg/ha)
8.5: Herbicidal rating GLXMAW ([3]; rate 0.0313 kg/ha) | Herbicidal rating GLXMAW ([3]; rate 0.0625 kg/ha)
1.0: Herbicidal rating ECHCG (ECHCG (Barnyardgrass); rate 0.0625 kg/ha)
9.0: herbicidal effect rating, MOOVA (MOOVA (Monochoria); 0.1250 kg/ha) | herbicidal effect rating, MOOVA (MOOVA (Monochoria); 0.2500 kg/ha) | Preemergence herbicidal rating ABUTH (ABUTH (Velvetleaf) [2]; rate 0.1250 kg/ha) | Preemergence herbicidal rating ABUTH (ABUTH (Velvetleaf) [2]; rate 0.2500 kg/ha) | Herbicidal rating SETVI (SETVI (Foxtail, Green) [4]; rate 0.0313 kg/ha) | Herbicidal rating SETVI (SETVI (Foxtail, Green) [4]; rate 0.0625 kg/ha) | Herbicidal rating AMBEL (AMBEL (Ragweed, Common); rate 0.0156 kg/ha) | Herbicidal rating AMBEL (AMBEL (Ragweed, Common); rate 0.0313 kg/ha) | Herbicidal rating AMBEL (AMBEL (Ragweed, Common); rate 0.0625 kg/ha) | Herbicidal rating ABUTH (ABUTH (Velvetleaf) [7]; rate 0.0156 kg/ha) | Herbicidal rating ABUTH (ABUTH (Velvetleaf) [7]; rate 0.0313 kg/ha) | Herbicidal rating ABUTH (ABUTH (Velvetleaf) [7]; rate 0.0625 kg/ha) | Herbicidal rating CYPIR (CYPIR (Rice Flatsedge); [11])

C[C@@H](C(=O)O)N1C(=O)CS/C1=N/c1cc(-n2c(=O)cc(C(F)(F)F)n(C)c2=O)c(F)cc1Cl [Compound 51, 2-{{2-Chloro-5-[3,6-dihydro-3-methyl-2,6-dioxo-4-(trifluoromethyl)-1(2H)-pyrimidinyl]-4-fluoro-phenyl}imino}-α-methyl-4-oxo-3-thiazolidineacetic acid, L-]
8.0: Postemergence herbicidal rating GLXMAW ([3]; Rate 0.0315 kg/ha) | Postemergence herbicidal rating GLXMAW ([3]; Rate 0.0630 kg/ha)
4.0: Herbicidal rating MOOVA (MOOVA (Monochoria); 0.1250 kg/ha) | Herbicidal rating MOOVA (MOOVA (Monochoria); 0.2500 kg/ha) | Postemergence herbicidal rating ORYSAT (ORYSAT (Rice, Tebonnet); Rate 0.0630 kg/ha) | Postemergence herbicidal rating TRZAWR ([5]; Rate 0.0158 kg/ha) | Postemergence herbicidal rating ECHCG (ECHCG (Barnyardgrass); Rate 0.0158 kg/ha)
5.5: Postemergence herbicidal rating TRZAWR ([5]; Rate 0.0315 kg/ha)
9.0: Preemergence herbicidal rating ABUTH (ABUTH (Velvetleaf) [2]; rate 0.0156 kg/ha) | Preemergence herbicidal rating ABUTH (ABUTH (Velvetleaf) [2]; rate 0.0313 kg/ha) | Preemergence herbicidal rating ABUTH (ABUTH (Velvetleaf) [2]; rate 0.0625 kg/ha) | Preemergence herbicidal rating ABUTH (ABUTH (Velvetleaf) [2]; rate 0.2500 kg/ha) | Postemergence herbicidal rating SETVI (SETVI (Foxtail, Green) [4]; Rate 0.0315 kg/ha) | Postemergence herbicidal rating SETVI (SETVI (Foxtail, Green) [4]; Rate 0.0630 kg/ha) | Postemergence herbicidal rating AMBEL (AMBEL (Ragweed, Common); Rate 0.0630 kg/ha) | Postemergence herbicidal rating ABUTH (ABUTH (Velvetleaf) [7]; Rate 0.0158 kg/ha) | Postemergence herbicidal rating ABUTH (ABUTH (Velvetleaf) [7]; Rate 0.0315 kg/ha) | Postemergence herbicidal rating ABUTH (ABUTH (Velvetleaf) [7]; Rate 0.0630 kg/ha) | Preemergence herbicidal rating SETVI (SETVI (Foxtail, Green) [8]; rate 0.2500 kg/ha) | Postemergence herbicidal rating ECHCG (ECHCG (Barnyardgrass); Rate 0.0630 kg/ha)
3.0: Herbicidal rating MOOVA (MOOVA (Monochoria); 0.0625 kg/ha) | Herbicidal rating CYPIR (CYPIR (Rice Flatsedge); [13]) | Preemergence herbicidal rating SETVI (SETVI (Foxtail, Green) [8]; rate 0.0625 kg/ha)
0.0: Herbicidal rating SAGPY ([1]; 0.0625 kg/ha) | Herbicidal rating SAGPY ([1]; 0.1250 kg/ha) | Herbicidal rating SAGPY ([1]; 0.2500 kg/ha) | Preemergence herbicidal rating CASOB (CASOB (Sicklepod); rate 0.0156 kg/ha) | Preemergence herbicidal rating CASOB (CASOB (Sicklepod); rate 0.0313 kg/ha) | Preemergence herbicidal rating CASOB (CASOB (Sicklepod); rate 0.0625 kg/ha) | Herbicidal rating SAGPY [6, 12] | Herbicidal rating SAGPY [6, 13] | Herbicidal rating SAGPY [6, 14] | Preemergence herbicidal rating SETVI (SETVI (Foxtail, Green) [8]; rate 0.0313 kg/ha)
2.0: Postemergence herbicidal rating ORYSAT (ORYSAT (Rice, Tebonnet); Rate 0.0158 kg/ha) | Herbicidal rating CYPIR (CYPIR (Rice Flatsedge); [12])
7.0: Preemergence herbicidal rating ABUTH (ABUTH (Velvetleaf) [2]; rate 0.1250 kg/ha) | Postemergence herbicidal rating SETVI (SETVI (Foxtail, Green) [4]; Rate 0.0158 kg/ha) | Postemergence herbicidal rating TRZAWR ([5]; Rate 0.0630 kg/ha)
1.0: Preemergence herbicidal rating CASOB (CASOB (Sicklepod); rate 0.1250 kg/ha) | Preemergence herbicidal rating CASOB (CASOB (Sicklepod); rate 0.2500 kg/ha) | Preemergence herbicidal rating SETVI (SETVI (Foxtail, Green) [8]; rate 0.0156 kg/ha)
6.0: Postemergence herbicidal rating GLXMAW ([3]; Rate 0.0158 kg/ha) | Postemergence herbicidal rating AMBEL (AMBEL (Ragweed, Common); Rate 0.0158 kg/ha) | Postemergence herbicidal rating AMBEL (AMBEL (Ragweed, Common); Rate 0.0315 kg/ha) | Herbicidal rating CYPIR (CYPIR (Rice Flatsedge); [14]) | Preemergence herbicidal rating SETVI (SETVI (Foxtail, Green) [8]; rate 0.1250 kg/ha)
3.5: Postemergence herbicidal rating ORYSAT (ORYSAT (Rice, Tebonnet); Rate 0.0315 kg/ha)
5.0: Postemergence herbicidal rating ECHCG (ECHCG (Barnyardgrass); Rate 0.0315 kg/ha)
